The nature of this assay: Antioxidant activity assessed as galvinoxyl free radical scavenging activity measured as second order rate constant by spectrophotometry. Format: functional.

Molecules are shown by their SMILES.

As for `Oc1cc(O)c2c(c1)O[C@H](c1ccc(O)c(O)c1)[C@@H](O)C2`, the K (10'1mol/dm3/s) worked out at 3.87.

The record behind these values is ChEMBL document CHEMBL3259589, “Synthesis and radical-scavenging activity of a dimethyl catechin analogue” (Bioorg Med Chem Lett, 2014).
